The source of these data is patent publication US12454529B2, “Piperazine cyclic ureas” (SIRONAX LTD., priority 2020, dated 2025).

The first test has as its system HT-29 cells. Put plainly: HT-29 cell necrosis/necroptosis inhibition (TNF-α + SMAC mimetic + zVAD-FMK; CellTiter-Glo cell viability). To be noted: Homo sapiens, HT-29, 20 h, read-out: EC50 (Cell activity; Necrosis/Necroptosis Inhibitory Activity, Compounds 143-323). Type of test: cell-based. The gist of the method: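 Necroptosis was driven by TNF-α 10 ng/ml plus SMAC mimetic 6 μM and zVAD-FMK 10 μM in serum-free medium, with compounds as a 10-point threefold titration. After 20 h at 37 °C, ATP-based luminescence was read; EC50 values are geometric means of duplicate curves.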
In general, EC50 refers to the midpoint of the concentration-response curve. With `CC(=O)N1Cc2c(-c3nc(N4CCN(C(=O)N5N=CC[C@H]5c5cc(F)cc(C#N)c5)CC4)ncc3F)nn(C)c2C1` [Compound 152, (S)-3-(1-(4-(4-(5-acetyl-1-methyl-1,4,5,6-tetrahydropyrrolo[3,4-c]pyrazol-3-yl)-5-fluoropyrimidin-2-yl)piperazine-1-carbonyl)-4,5-dihydro-1H-pyrazol-5-yl)-5-fluorobenzonitrile], the EC50 fell in the range of 1 to 10 µM.

The test is the same for the next values; noted with them: Homo sapiens; HT-29 cells, TNF-α 10 ng/ml + SMAC mimetic 6 μM + zVAD-FMK 10 μM, 20 hours; geometric mean, 10 points in duplicate; read-out: EC50 (Cell activity; Necrosis/Necroptosis Inhibitory Activity, Compounds 1-142).
`Cc1nn(CCO)c(C)c1-c1nc(N2CCN(C(=O)N3N=CC[C@H]3c3cc(F)cc(F)c3)CC2)ncc1F` [Compound 118, (S)-(5-(3,5-difluorophenyl)-4,5-dihydro-1H-pyrazol-1-yl)(4-(5-fluoro-4-(1-(2-hydroxyethyl)-3,5-dimethyl-1H-pyrazol-4-yl)pyrimidin-2-yl)piperazin-1-yl)methanone]: the EC50 is 0.0001 to 0.1 µM. With `COC(=O)c1c[nH]c(-c2ccnc(N3CCN(C(=O)N4N=CC[C@H]4c4cc(F)cc(F)c4)CC3)n2)c1` [Compound 9, methyl (5)-5-(2-(4-(5-(3,5-difluorophenyl)-4,5-dihydro-1H-pyrazole-1-carbonyl)piperazin-1-yl)pyrimidin-4-yl)-1H-pyrrole-3-carboxylate], the EC50 lay in the range of 0.0001 to 0.1 µM. For `Cc1nc(C)n(-c2ccnc(N3CCN(C(=O)N4N=CC[C@H]4c4cc(F)cc(F)c4)CC3)n2)n1` [Compound 100, (S)-(5-(3,5-difluorophenyl)-4,5-dihydro-1H-pyrazol-1-yl)(4-(4-(3,5-dimethyl-1H-1,2,4-triazol-1-yl)pyrimidin-2-yl)piperazin-1-yl)methanone], the EC50 lay within 0.0001 to 0.1 µM. The same measure, in the same setting: the same measure for `COCCn1nc(C)c(-c2nc(N3CCN(C(=O)N4N=CC[C@H]4c4cc(F)cc(F)c4)CC3)ncc2F)c1C` [Compound 120, (S)-(5-(3,5-difluorophenyl)-4,5-dihydro-1H-pyrazol-1-yl)(4-(5-fluoro-4-(1-(2-methoxyethyl)-3,5-dimethyl-1H-pyrazol-4-yl)pyrimidin-2-yl)piperazin-1-yl)methanone]: 0.0001 to 0.1 µM; for `Cc1noc(C)c1-c1nc(N2CCN(C(=O)N3N=CC[C@H]3c3cc(F)cc(F)c3)CC2)ncc1F` [Compound 108, (S)-(5-(3,5-difluorophenyl)-4,5-dihydro-1H-pyrazol-1-yl)(4-(4-(3,5-dimethylisoxazol-4-yl)-5-fluoropyrimidin-2-yl)piperazin-1-yl)methanone]: 0.0001 to 0.1 µM. Take `Cc1nn(-c2nc(N3CCN(C(=O)N4N=CC[C@H]4c4cc(F)cc(C#N)c4)CC3)ncc2F)c(C)c1N` [Compound 131, (S)-3-(1-(4-(4-(4-amino-3,5-dimethyl-1H-pyrazol-1-yl)-5-fluoropyrimidin-2-yl)piperazine-1-carbonyl)-4,5-dihydro-1H-pyrazol-5-yl)-5-fluorobenzonitrile]: the EC50 fell in the range of 0.0001 to 0.1 µM. On the same count and under the same terms, the same measure for `Cc1nc(C)n(-c2cc(N3CCN(C(=O)N4N=CC[C@H]4c4cc(F)cc(F)c4)CC3)ncn2)n1` [Compound 90, (S)-(5-(3,5-difluorophenyl)-4,5-dihydro-1H-pyrazol-1-yl)(4-(6-(3,5-dimethyl-1H-1,2,4-triazol-1-yl)pyrimidin-4-yl)piperazin-1-yl)methanone]: 0.0001 to 0.1 µM; for `O=C(N1CCN(c2ncc(F)c(-c3n[nH]nc3I)n2)CC1)N1N=CC[C@H]1c1cc(F)cc(F)c1` [Compound 20, (S)-(5-(3,5-difluorophenyl)-4,5-dihydro-1H-pyrazol-1-yl)(4-(5-fluoro-4-(5-iodo-1H-1,2,3-triazol-4-yl)pyrimidin-2-yl)piperazin-1-yl)methanone]: 0.0001 to 0.1 µM. The same measure, in the same setting: the same measure for `Cc1nc(C)n(-c2nc(N3CCN(C(=O)N4N=CC[C@H]4c4cc(F)cc(F)c4)CC3)ncc2F)n1` [Compound 46]: 0.0001 to 0.1 µM; for `Cc1nn(CC2CCOCC2)c(C)c1-c1nc(N2CCN(C(=O)N3N=CC[C@H]3c3cc(F)cc(F)c3)CC2)ncc1F` [Compound 122, (S)-(5-(3,5-difluorophenyl)-4,5-dihydro-1H-pyrazol-1-yl)(4-(4-(3,5-dimethyl-1-((tetrahydro-2H-pyran-4-yl)methyl)-1H-pyrazol-4-yl)-5-fluoropyrimidin-2-yl)piperazin-1-yl)methanone]: 0.0001 to 0.1 µM.

`NC(=O)Cn1ccc(-c2nc(N3CCN(C(=O)N4N=CC[C@H]4c4cc(F)cc(F)c4)CC3)ncc2F)n1` [Compound 29, (S)-2-(3-(2-(4-(5-(3,5-difluorophenyl)-4,5-dihydro-1H-pyrazole-1-carbonyl)piperazin-1-yl)-5-fluoropyrimidin-4-yl)-1H-pyrazol-1-yl)acetamide]: the EC50 is 0.0001 to 0.1 µM. Same read-out and setting: the same measure for `O=C(N1CCN(c2nccc(C3=NCCN3)n2)CC1)N1N=CC[C@H]1c1cc(F)cc(F)c1` [Compound 3, (S)-(5-(3,5-difluorophenyl)-4,5-dihydro-1H-pyrazol-1-yl)(4-(4-(4,5-dihydro-1H-imidazol-2-yl)pyrimidin-2-yl)piperazin-1-yl)methanone]: 0.0001 to 0.1 µM. Still for that read-out and setting: the figure for `N#Cc1cc(F)cc([C@@H]2CC=NN2C(=O)N2CCN(c3ncc(F)c(-c4ncc[nH]4)n3)CC2)c1` [Compound 112, (S)-3-fluoro-5-(1-(4-(5-fluoro-4-(1H-imidazol-2-yl)pyrimidin-2-yl)piperazine-1-carbonyl)-4,5-dihydro-1H-pyrazol-5-yl)benzonitrile] is 0.0001 to 0.1 µM.

The same test, now with this note: Homo sapiens; HT-29 cells, TNF-α 10 ng/ml + SMAC mimetic 6 μM + zVAD-FMK 10 μM, 20 hours; geometric mean, 10 points in duplicate; read-out: EC50 (Cell activity; Necrosis/Necroptosis Inhibitory Activity, Compounds 143-323).
`Cc1nc(C(N)=O)nn1-c1nc(N2CCN(C(=O)N3N=CC[C@H]3c3cncc(F)c3)CC2)ncc1F` [Compound 253, (S)-1-(5-fluoro-2-(4-(5-(5-fluoropyridin-3-yl)-4,5-dihydro-1H-pyrazole-1-carbonyl)piperazin-1-yl)pyrimidin-4-yl)-5-methyl-1H-1,2,4-triazole-3-carboxamide]: the EC50 was 0.0001 to 0.1 µM. On the same count and under the same terms, the figure for `N#Cc1cnn(-c2ncc(F)c(N3CCN(C(=O)N4N=CC[C@H]4c4cc(F)cc(F)c4)CC3)n2)c1` [Compound 218, (S)-1-(4-(4-(5-(3,5-difluorophenyl)-4,5-dihydro-1H-pyrazole-1-carbonyl)piperazin-1-yl)-5-fluoropyrimidin-2-yl)-1H-pyrazole-4-carbonitrile] is 0.0001 to 0.1 µM; for `Cc1nn(-c2ccnc(N3CCN(C(=O)N4N=CC[C@H]4c4cncc(F)c4)CC3)n2)c(C)c1C#N` [Compound 283, (S)-1-(2-(4-(5-(5-fluoropyridin-3-yl)-4,5-dihydro-1H-pyrazole-1-carbonyl)piperazin-1-yl)pyrimidin-4-yl)-3,5-dimethyl-1H-pyrazole-4-carbonitrile] it is 0.0001 to 0.1 µM; for `Cc1nnc(-c2nc(N3CCN(C(=O)N4N=CC[C@H]4c4cc(F)cc(F)c4)CC3)ncc2F)n1C` [Compound 178, (S)-(5-(3,5-difluorophenyl)-4,5-dihydro-1H-pyrazol-1-yl)(4-(4-(4,5-dimethyl-4H-1,2,4-triazol-3-yl)-5-fluoropyrimidin-2-yl)piperazin-1-yl)methanone] it is 0.0001 to 0.1 µM. The same measure, in the same setting: the figure for `Cc1nn(-c2ccnc(N3CCN(C(=O)N4N=CC[C@H]4c4cc(F)cc(C#N)c4)CC3)n2)c(C)c1S(C)(=O)=O` [Compound 206, (S)-3-(1-(4-(4-(3,5-dimethyl-4-(methylsulfonyl)-1H-pyrazol-1-yl)pyrimidin-2-yl)piperazine-1-carbonyl)-4,5-dihydro-1H-pyrazol-5-yl)-5-fluorobenzonitrile] is 0.0001 to 0.1 µM; for `Cc1nc(C)n(-c2nc(N3CCN(C(=O)N4N=CC[C@H]4c4cc(F)cc(C#N)c4)CC3)c(F)cc2F)n1` [Compound 233, (S)-3-(1-(4-(6-(3,5-dimethyl-1H-1,2,4-triazol-1-yl)-3,5-difluoropyridin-2-yl)piperazine-1-carbonyl)-4,5-dihydro-1H-pyrazol-5-yl)-5-fluorobenzonitrile] it is 0.0001 to 0.1 µM; for `CCS(=O)(=O)Nc1c(C)nn(-c2nc(N3CCN(C(=O)N4N=CC[C@H]4c4cc(F)cc(C#N)c4)CC3)ncc2F)c1C` [Compound 194, (S)—N-(1-(2-(4-(5-(3-cyano-5-fluorophenyl)-4,5-dihydro-1H-pyrazole-1-carbonyl)piperazin-1-yl)-5-fluoropyrimidin-4-yl)-3,5-dimethyl-1H-pyrazol-4-yl)ethanesulfonamide] it is 0.0001 to 0.1 µM. Same read-out and setting: the same measure for `Cc1nn(-c2ccnc(N3CCN(C(=O)N4N=CC[C@H]4c4cc(F)cc(C#N)c4)CC3)n2)c(C)c1Br` [Compound 273, (S)-3-(1-(4-(4-(4-bromo-3,5-dimethyl-1H-pyrazol-1-yl)pyrimidinyl)piperazine-1-carbonyl)-4,5-dihydro-1H-pyrazol-5-yl)-5-fluorobenzonitrile]: 0.0001 to 0.1 µM.

On to `Cc1cnn(C)c1-c1ncc(F)c(N2CCN(C(=O)N3N=CCC3c3ncccc3Cl)CC2)n1` (stereo not shown) [Compound 261, (5-(3-chloropyridin-2-yl)-4,5-dihydro-1H-pyrazol-1-yl)(4-(2-(1,4-dimethyl-1H-pyrazol-5-yl)-5-fluoropyrimidin-4-yl)piperazin-1-yl)methanone], for which the EC50 lay within 0.0001 to 0.1 µM. Same read-out and setting: the same measure for `CCS(=O)(=O)c1c(C)nn(-c2nc(N3CCN(C(=O)N4N=CC[C@H]4c4cc(F)cc(C#N)c4)CC3)ncc2F)c1C` [Compound 205, (S)-3-(1-(4-(4-(4-(ethylsulfonyl)-3,5-dimethyl-1H-pyrazol-1-yl)-5-fluoropyrimidin-2-yl)piperazine-1-carbonyl)-4,5-dihydro-1H-pyrazol-5-yl)-5-fluorobenzonitrile]: 0.0001 to 0.1 µM; for `Cc1nc(C(F)(F)F)nn1-c1ccnc(N2CCN(C(=O)N3N=CC[C@H]3c3cc(F)cc(C#N)c3)CC2)n1` [Compound 147, (S)-3-fluoro-5-(1-(4-(4-(5-methyl-3-(trifluoromethyl)-1H-1,2,4-triazol-1-yl)pyrimidin-2-yl)piperazine-1-carbonyl)-4,5-dihydro-1H-pyrazol-5-yl)benzonitrile]: 0.0001 to 0.1 µM.
